pIC50: −log10 of the molar value.
Experiments:
[1] = system: mean arterial blood pressure response to angiotensin I; test: Intravenous effectiveness: blood pressure response to angiotensin I in anesthetized rats; format: in vivo, rat; settings: i.v.; angiotensin I 400 ng/kg
Protocol: Rats (210-290 g body weight) were fasted overnight and then anesthetized with intraperitoneal pentobarbital, 50-60 mg/kg. Tracheostomy was performed and the animals were ventilated mechanically. A cannula was inserted into a femoral vein for injection of angiotensin I, and a second cannula was inserted into a common carotid artery for direct measurement of arterial blood pressure. Heparin, 1,000 units, was injected via the femoral vein to prevent coagulation. Blood pressure was measured with a pressure transducer connected to a polygraph. The rats were injected with […] of angiotensin I in 20 μl of 0.9 g % NaCl; an amount of angiotensin I sufficient to raise mean arterial blood pressure by 38 mm Hg. After the responsiveness of a given rat to angiotensin I was established, the named compound at 20 μmol/kg (drug dissolved in 0.15 ml of H2 O plus 10 μl of 1N NaHCO3), was given via a stomach tube. At timed intervals, the effects of 400 ng/kg of angiotensin I on mean arterial blood pressure were tested. Results are shown below:
Intravenous Effectiveness of N^α -[3-(N^α -benzoylglycylthio)-2-D-methylpropanoyl)-L-proline. Anesthetized rats were prepared as described in Example 20. The animals were administered the named compound via a femoral vein in 15 μl of 0.01 N sodium bicarbonate, after the control response to 400 ng/kg of angiotensin I was measured. […]

[2] = biological target: T1, angiotensin converting enzyme (human urinary ACE) (Homo sapiens, UniProt P12821); test: ACE activity assay: hydrolysis of Benzoyl-GlyHisLeu by ACE purified from human urine; format: biochemical; settings: Benzoyl-GlyHisLeu 1×10^-4 M, pH 8.0, 37° C, read-out: I50
T1 construct: ACE purified from human urine; from tissue; host or cells: human urine
T1 sequence (P12821 30-1232 limits assumed): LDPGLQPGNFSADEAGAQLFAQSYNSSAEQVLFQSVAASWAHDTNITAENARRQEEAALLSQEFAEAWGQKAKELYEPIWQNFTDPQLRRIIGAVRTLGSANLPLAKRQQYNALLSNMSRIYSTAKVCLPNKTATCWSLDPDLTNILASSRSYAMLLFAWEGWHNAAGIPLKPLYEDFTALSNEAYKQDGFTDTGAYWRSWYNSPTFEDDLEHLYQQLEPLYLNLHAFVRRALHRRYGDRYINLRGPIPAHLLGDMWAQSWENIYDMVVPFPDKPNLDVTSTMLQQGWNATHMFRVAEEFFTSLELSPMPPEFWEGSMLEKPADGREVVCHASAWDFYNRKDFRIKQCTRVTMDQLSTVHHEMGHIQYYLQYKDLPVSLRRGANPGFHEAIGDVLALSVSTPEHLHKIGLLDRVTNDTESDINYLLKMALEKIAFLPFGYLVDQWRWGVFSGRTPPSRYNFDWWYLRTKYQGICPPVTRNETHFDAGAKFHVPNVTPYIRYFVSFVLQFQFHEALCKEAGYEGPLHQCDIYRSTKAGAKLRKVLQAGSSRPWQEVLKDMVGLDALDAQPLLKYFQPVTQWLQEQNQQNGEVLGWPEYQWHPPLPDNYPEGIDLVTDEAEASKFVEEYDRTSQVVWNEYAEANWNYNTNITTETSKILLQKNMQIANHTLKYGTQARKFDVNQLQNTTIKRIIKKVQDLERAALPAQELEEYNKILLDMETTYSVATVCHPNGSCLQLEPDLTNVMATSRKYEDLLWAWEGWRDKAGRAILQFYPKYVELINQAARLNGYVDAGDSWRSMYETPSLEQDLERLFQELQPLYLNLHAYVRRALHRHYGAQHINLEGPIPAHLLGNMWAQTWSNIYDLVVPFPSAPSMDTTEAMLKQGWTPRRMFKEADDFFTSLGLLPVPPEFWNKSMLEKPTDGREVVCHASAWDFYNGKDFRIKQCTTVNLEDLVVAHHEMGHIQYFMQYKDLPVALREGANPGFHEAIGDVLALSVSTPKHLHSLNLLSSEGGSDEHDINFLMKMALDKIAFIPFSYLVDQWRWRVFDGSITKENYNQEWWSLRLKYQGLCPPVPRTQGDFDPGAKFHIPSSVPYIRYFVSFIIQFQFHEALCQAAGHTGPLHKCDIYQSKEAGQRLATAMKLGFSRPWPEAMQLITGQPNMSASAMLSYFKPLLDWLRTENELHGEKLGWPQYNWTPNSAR
Source text: The role of ACE in the pathogenesis of hypertension has prompted a search for inhibitors of the enzyme that could act as antihypertensive drugs. See for example U.S. Pat. Nos. 3,891,616, 3,947,575, 4,052,511 and 4,053,651. […]. No. 4,046,889 to Ondetti et al., issued Sept. 6, 1977, and in scientific articles by Cushman, D. W. et al., Biochemistry 16, 5484 (1977), and by Ondetti, M. et al., Science 196, 441 (1977). […]. These factors include the source of enzyme, its purity, the substrate used and its concentration, and the composition of the assay buffer. All I50 data reported herein have been performed with the same assay system and same enzyme (human urinary ACE) and with an approximately 1/2 Km level of substrate and are therefore internally consistent. Discrepancies with data obtained by other workers may be observed. Indeed such discrepancies do exist in the literature, for unknown reasons. See, for example, the I50 values for BPP9a reported by Cushman, D. W., et al., Experientia 29, 1032 (1973) and by Dorer, F. E., et al., Biochim.Biophys.Acta 429, 220 (1976).
For most experiments described herein, the enzyme was assayed in 0.05M Hepes buffer, pH 8.0 containing 0.1M NaCl and 0.75M Na2 SO4. […]
The inhibitory potency of N^α-[ 3-(N^α -benzoylglycylthio)-2-D-L-proline in vitro was measured in the assay described in Example 1. […]

[3] = system: mean arterial blood pressure response to angiotensin I; test: Oral effectiveness: blood pressure response to angiotensin I in anesthetized rats; format: in vivo, rat; settings: angiotensin I 400 ng/ml in 20 μl of 0.9 g % NaCl (table: 400 ng/kg); control response before drug
Protocol: Rats (210-290 g body weight) were fasted overnight and then anesthetized with intraperitoneal pentobarbital, 50-60 mg/kg. Tracheostomy was performed and the animals were ventilated mechanically. A cannula was inserted into a femoral vein for injection of angiotensin I, and a second cannula was inserted into a common carotid artery for direct measurement of arterial blood pressure. Heparin, 1,000 units, was injected via the femoral vein to prevent coagulation. Blood pressure was measured with a pressure transducer connected to a polygraph. The rats were injected with 400 ng/ml of angiotensin I in 20 μl of 0.9 g % NaCl; an amount of angiotensin I sufficient to raise mean arterial blood pressure by 38 mm Hg. After the responsiveness of a given rat to angiotensin I was established, the named compound at 20 μmol/kg (drug dissolved in 0.15 ml of H2 O plus 10 μl of 1N NaHCO3), was given via a stomach tube. At timed intervals, the effects of 400 ng/kg of angiotensin I on mean arterial blood pressure were tested.

Compound	Blood pressure response to angiotensin I after intravenous administration (in words) [1]	pIC50 [2]	Increase of mean arterial blood pressure by angiotensin I [3]
C[C@H](CSC(=O)CNC(=O)c1ccccc1)C(=O)N1CCC[C@H]1C(=O)O [Example 13, N^α -[3-(N^Δ -benzoylglycylthio)-2-D-methylpropanoyl]-L-proline]	rapid decrease of blood pressure response to angiotensin I, 400 ng/kg followed by a gradual rise to the pretreatment level of responsiveness	8.12	–
angiotensin I: decapeptide angiotensin I, having the sequence AspArgValTyrlleHisProPheHisLeu (DRVYIHPFHL; Angiotensin-1; UniProt P01019 25-34, looked up)	–	–	38 mm Hg

Reference: US4690938A, “Anti-hypertensive agents” (University of Miami, priority 1979, dated 1987)
